According to US10568892B2, “Cycloartane tetracyclic triterpenoid compound, preparation method therefor and use thereof” (Hefei Cosource Pharmaceuticals Inc., priority 2016, dated 2020):
Where two headings read alike, the source gives them in different places. Marks after values point to notes of the source that are not given here.

Experiments:
[1] = system: ventricular papillary muscle cell of guinea pig; test: Action potential of the ventricular papillary muscle cell of guinea pig (electrophysiological recording); format: cell-based; settings: for percent change in action potential duration at 0.0005 µM / percent change in action potential duration at 0.005 µM / percent change in action potential duration at 0.05 µM: Cavia porcellus, 20 min, read-out: APD, Change rate (%); for APD50, Pre-administration / APD90, Pre-administration: baseline; for Effect on the APD value of the action potential of the papillary muscle (in words): Table 3 summary
Experimental: Method: One guinea pig was taken to violently hit the back of the brain such that it fainted. The common carotid artery was cut off for bleeding to kill the guinea pig. The chest was incised to expose the heart, and the ventricle was cut open along the interventricular septum to expose the lumen of the left ventricle. The papillary muscles were quickly taken out and placed in a Kreb's solution saturated with O2 (mixed gas of 95% O2 and 5% CO2) at 0° C. After the microscopic dressing, the papillary muscle specimen was fixed with a stainless steel needle on the silicone rubber at the bottom of the perfusion bath, and perfused with the oxygen-saturated Kreb's solution. The relevant parameters for perfusion: the temperature was 37±0.5° C., and the flow rate was 4 mL/min.
Cellular action potentials were recorded using a conventional electrophysiological method. The glass electrode filled with 3M KCl saturated solution and having a tip resistance of 15-30 MΩ was fixed on the microelectrode manipulator MP-2. The glass electrode was gently inserted into the superficial layer of the prepared papillary muscle specimen using a microelectrode pusher. The electrode was adjusted to provide the predetermined bioelectrical stimulation with the triple-channel SEN-7203 electronic stimulator and SS-202 J isolator. The bioelectrical signal was amplified by the MEZ-8301 amplifier and then input to the computerized electrophysiological recording and analysis system Powerlab 4/25. Subsequently, the relevant parameters of the action potential for the ventricular papillary muscle were analyzed through the analysis system. The relevant parameters for electrical stimulation: 30 ms latency, 7 ms wavewidth, 1 Hz frequency, 52.1 my stimulation intensity.
In the compound screening test stage, after the ventricular papillary muscle specimen of the guinea pig was fixed, it was first perfused with a normal Kreb's solution for about 85 minutes for stabilization, and the relevant parameters of the cellular action potential before administration were recorded at about 80 min after the start of perfusion. The three-limb tube was used to convert the perfusates containing the title compounds. The title compounds were continuously perfused for about 25 min successively with low (0.0005 μM), medium (0.005 μM), and high (0.05 μM) concentrations, respectively. At about 20 min after the start of drug perfusions at different concentrations, the relevant parameters of the action potentials for the ventricular papillary muscle of guinea pig were observed and recorded, respectively. The normal Kreb's solution was used to perfuse and elute for about 25 min during the intervals between drug perfusions at different concentrations.
The experiment was divided into the following five groups with 6 animals in each group: a vehicle control group, a 369 low dose (0.0005 μM) group, a 369 medium dose (0.005 μM) group, a 369 high dose (0.05 μM) group, and an amiodarone (10 μM) positive control group. After the ventricular papillary muscle specimen of the guinea pig was fixed, it was first perfused with a normal Kreb's solution for about 85 minutes for stabilization, and the relevant parameters of the cellular action potential before administration were recorded at about 80 min after the start of perfusion. According to groups, the three-limb tube was configured to convert the perfusates containing the vehicle, positive control, or Compound 369 at the corresponding concentrations to continuously perfuse for about 25 min. At about 20 min after the start of the perfusions, the relevant parameters of the action potentials for the ventricular papillary muscle of guinea pig were observed and recorded.

[2] = Single-dose toxicity (MTD) in KM mice; format: in vivo; settings: in vivo, po; KM mouse; single intragastrical administration; read-out: Maximum tolerance dose (MTD)
Description: The results of the experimental study on the toxicity of Compound 369 administrated through a single intravenous or intragastrical administration in SD rats and KM mice are shown in Table 9.

[3] = Pharmacokinetics in SD rats; format: in vivo, rat; settings: rat, in vivo
Experimental: Method: twelve SD male rats were divided into four groups: 2 mg/kg of Compound 369 or cyclovirobuxine D was single dose through the intravenous injection or intragastrical administration, respectively. In the intravenous and intragastrical groups, blood samples (about 0.3 Ml) were collected from the posterior orbital venous plexus pro-dose and 0.25 h, 0.5 h, 1 h, 2 h, 4 h, 6 h, 8 h, and 12 h post-dose. The concentrations of Compound 369 and cyclovirobuxine D in plasma samples were determined by LC-MS/MS, and the pharmacokinetic parameters were calculated by DAS.3.0 software.

Compound: CN[C@H]1CC[C@]23C[C@]24CC[C@]2(C)C(C(C)=O)=CC[C@@]2(C)[C@@H]4CC[C@H]3C1(C)C [Compound 369, (3β,5α)-4,4,14-trimethyl-3-(methylamino)-9,19-cyclopregnan-16-en-20-one]
- Effect on APD, APD50 and APD90 (in words) ([1]; 0.0005 μM, 0.005 μM and 0.05 μM, concentration-dependent): can prolong APD, APD50 and APD90
- percent change in action potential duration at 0.0005 µM ([1]; n = 6, x ± SD, 0.0005 μM): 43.6%
- percent change in action potential duration at 0.005 µM ([1]; n = 6, x ± SD, 0.005 μM): 43.5%
- percent change in action potential duration at 0.05 µM ([1]; n = 6, x ± SD, 0.05 μM): 66.5%
- percent change in action potential duration at 0.0005 µM ([1]; screening stage, 0.0005 μM): 26.8%
- percent change in action potential duration at 0.005 µM ([1]; screening stage, 0.005 μM): 47.9%
- percent change in action potential duration at 0.05 µM ([1]; screening stage, 0.05 μM): 65.7%
- APD50, Change rate (%) ([1]; n = 6, x ± SD, 0.0005 μM): 49.41% ± 16.99%
- APD50, Post-administration ([1]; n = 6, x ± SD, 0.0005 μM): 0.0572 ± 0.0247^a
- APD90, Change rate (%) ([1]; n = 6, x ± SD, 0.0005 μM): 44.30% ± 17.58%^b
- APD90, Post-administration ([1]; n = 6, x ± SD, 0.0005 μM): 0.0795 ± 0.0260^a
- APD, Post-administration ([1]; n = 6, x ± SD, 0.0005 μM): 0.0930 ± 0.0246^a
- APD50, Pre-administration ([1]; n = 6, x ± SD, 0.0005 μM group): 0.0365 ± 0.0183
- APD90, Pre-administration ([1]; n = 6, x ± SD, 0.0005 μM group): 0.0537 ± 0.0235
- APD50, Change rate (%) ([1]; n = 6, x ± SD, 0.005 μM): 47.25% ± 28.78%
- APD50, Post-administration ([1]; n = 6, x ± SD, 0.005 μM): 0.0610 ± 0.0342^a
- APD90, Change rate (%) ([1]; n = 6, x ± SD, 0.005 μM): 40.25% ± 24.21%^b
- APD90, Post-administration ([1]; n = 6, x ± SD, 0.005 μM): 0.0838 ± 0.0345^a
- APD, Post-administration ([1]; n = 6, x ± SD, 0.005 μM): 0.1023 ± 0.0365^a
- APD50, Pre-administration ([1]; n = 6, x ± SD, 0.005 μM group): 0.0428 ± 0.0244
- APD90, Pre-administration ([1]; n = 6, x ± SD, 0.005 μM group): 0.0604 ± 0.0243
- APD50, Change rate (%) ([1]; n = 6, x ± SD, 0.05 μM): 101.63% ± 62.10%^b
- APD50, Post-administration ([1]; n = 6, x ± SD, 0.05 μM): 0.0764 ± 0.0270^a
- APD90, Change rate (%) ([1]; n = 6, x ± SD, 0.05 μM): 70.81% ± 46.76%^b
- APD90, Post-administration ([1]; n = 6, x ± SD, 0.05 μM): 0.1006 ± 0.0242^a
- APD, Post-administration ([1]; n = 6, x ± SD, 0.05 μM): 0.1199 ± 0.0235^a
- APD50, Pre-administration ([1]; n = 6, x ± SD, 0.05 μM group): 0.0385 ± 0.0090
- APD90, Pre-administration ([1]; n = 6, x ± SD, 0.05 μM group): 0.0603 ± 0.0103
- Effect on the APD value of the action potential of the papillary muscle (in words) ([1]; screening stage): the strongest effect
- Effect on the APD value of the action potential of the papillary muscle (in words) ([1]; screening stage, listed as Example 1): a certain degree of prolonged effects
- APD, Post-administration ([1]; screening stage, 0.0005 μM, about 20 min perfusion): 0.0912
- APD, Post-administration ([1]; screening stage, 0.005 μM, about 20 min perfusion): 0.1031
- APD, Post-administration ([1]; screening stage, 0.05 μM, about 20 min perfusion): 0.1168
- MTD [2]: 1000 mg/kg
- F ([3]; male, SD, 2 mg/kg): 35%
- AUC(0-t) ([3]; male, SD, iv, 2 mg/kg): 249 ng·h/mL
- Cmax ([3]; male, SD, iv, 2 mg/kg): 103 ng/mL
- Tmax ([3]; male, SD, iv, 2 mg/kg): 0.25 h
- half-life ([3]; male, SD, iv, 2 mg/kg): 4.1 h
- AUC(0-t) ([3]; male, SD, po, 2 mg/kg): 84.6 ng·h/mL
- Cmax ([3]; male, SD, po, 2 mg/kg): 11.4 ng/mL
- Tmax ([3]; male, SD, po, 2 mg/kg): 5 h
- half-life ([3]; male, SD, po, 2 mg/kg): 3.5 h
- Exposures in plasma (AUC and Cmax values) vs cyclovirobuxine D (in words) [3]: slightly lower than that of cyclovirobuxine D
- Half-life (T1/2) vs cyclovirobuxine D (in words) [3]: significantly shorter than that of cyclovirobuxine D
